Results taken from patent US12351580B2, “NLRP3 modulators” (Innate Tumor Immunity, Inc., priority 2017, dated 2025).
Where a name gives a salt, the structure may show the parent alone.

These compounds were tested against T1, TLR8 (Homo sapiens, UniProt Q9NR97) (assay: In vitro human TLR8 binding reporter assay (HEK-Blue, NF-kB/AP1-inducible SEAP)). Settings: activity range symbols.
T1 construct: host or cells: HEK-Blue cells (human HEK) co-expressing TLR8 and an NF-kB/AP1-inducible SEAP reporter
T1 sequence (Q9NR97 27-1041): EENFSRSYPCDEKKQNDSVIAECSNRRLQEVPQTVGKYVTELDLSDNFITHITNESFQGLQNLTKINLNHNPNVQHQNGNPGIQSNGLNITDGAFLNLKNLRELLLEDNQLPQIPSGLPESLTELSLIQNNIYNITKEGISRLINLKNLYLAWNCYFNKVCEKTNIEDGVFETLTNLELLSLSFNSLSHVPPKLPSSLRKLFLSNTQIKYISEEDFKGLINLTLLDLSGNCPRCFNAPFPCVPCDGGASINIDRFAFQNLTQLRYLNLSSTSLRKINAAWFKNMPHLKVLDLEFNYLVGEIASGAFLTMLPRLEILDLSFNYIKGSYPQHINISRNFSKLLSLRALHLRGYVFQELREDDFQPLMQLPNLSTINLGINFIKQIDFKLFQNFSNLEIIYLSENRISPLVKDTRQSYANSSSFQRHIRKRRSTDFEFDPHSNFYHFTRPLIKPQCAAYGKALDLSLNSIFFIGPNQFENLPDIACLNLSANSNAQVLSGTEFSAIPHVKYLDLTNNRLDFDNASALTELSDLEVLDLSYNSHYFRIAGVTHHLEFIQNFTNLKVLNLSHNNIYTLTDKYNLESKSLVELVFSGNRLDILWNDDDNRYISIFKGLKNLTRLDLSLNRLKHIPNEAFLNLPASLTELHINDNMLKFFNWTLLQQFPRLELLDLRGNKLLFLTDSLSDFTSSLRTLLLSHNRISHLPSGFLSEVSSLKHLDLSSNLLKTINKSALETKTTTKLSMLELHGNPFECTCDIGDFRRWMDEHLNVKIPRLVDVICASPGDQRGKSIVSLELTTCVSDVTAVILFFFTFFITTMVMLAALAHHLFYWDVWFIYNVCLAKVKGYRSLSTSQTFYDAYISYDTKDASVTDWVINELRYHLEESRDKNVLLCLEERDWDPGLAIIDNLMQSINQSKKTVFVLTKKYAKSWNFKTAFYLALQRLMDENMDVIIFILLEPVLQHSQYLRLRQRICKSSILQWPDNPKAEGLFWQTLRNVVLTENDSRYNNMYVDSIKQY
Assay type: cell-based
How it was run: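 Reporter cells are plated at 15,000 per well and rested 24 h. Next day, test compounds or DMSO are dispensed, followed by 18 h incubation at 37 °C, 5% CO2.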

Row | EC50 [µM] | Structure (SMILES)
1 | > 100 | CCNCc1nc2c(N)nc3cc(-c4cc[nH]n4)ccc3c2[nH]1 [Compound 101, 2-[(Ethylamino)methyl]-7-(1H-pyrazol-3-yl)-1H-imidazo[4,5-c]quinolin-4-amine hydrochloride]
2 | > 100 | CC(=O)N(C)Cc1nc2c(N)nc3cc(-n4cccn4)ccc3c2[nH]1 [Compound 102, N-((4-Amino-7-(1H-pyrazol-1-yl)-1H-imidazo[4,5-c]quinolin-2-yl)methyl)-N-methylacetamide]
3 | > 100 | CN(Cc1nc2c(N)nc3cc(-n4cccn4)ccc3c2[nH]1)S(C)(=O)=O [Compound 119]
4 | > 100 | CN(Cc1nc2c(N)nc3cc(-c4cc[nH]n4)ccc3c2[nH]1)C(=O)C1CC1 [Compound 120]
5 | > 100 | CCN(Cc1nc2c(N)nc3cc(-c4cc[nH]n4)ccc3c2n1C)C(C)=O [Compound 121]
6 | > 100 | CCC(=O)N(C)Cc1nc2c(N)nc3cc(-c4cc[nH]n4)ccc3c2[nH]1 [Compound 122]
7 | > 100 | CCN(Cc1nc2c(N)nc3cc(-c4cc[nH]n4)ccc3c2[nH]1)S(C)(=O)=O [Compound 124]
8 | > 100 | CCC(=O)N(CC)Cc1nc2c(N)nc3cc(-c4cc[nH]n4)ccc3c2[nH]1 [Compound 125]
9 | > 100 | CCN(Cc1nc2c(N)nc3cc(-c4cc[nH]n4)ccc3c2[nH]1)C(=O)NC [Compound 128]
10 | > 100 | CC(=O)N(C)Cc1nc2c(N)nc3cc(-c4cc[nH]n4)ccc3c2[nH]1 [Compound 129]
11 | > 100 | CCN(Cc1nc2c(N)nc3cc(-n4cccn4)ccc3c2[nH]1)C(N)=O [Compound 130]
12 | > 100 | NCc1nc2c(N)nc3cc(-c4cc[nH]n4)ccc3c2[nH]1 [Compound 131]
13 | > 100 | CCN(Cc1nc2c(N)nc3cc(-n4nccn4)ccc3c2[nH]1)C(C)=O [Compound 132]
14 | > 100 | CC(c1nc2c(N)nc3cc(-c4cccnc4)ccc3c2[nH]1)N1CCCC1=O (stereo not drawn) [Compound 138]
15 | > 100 | CC(=O)N(Cc1nc2c(N)nc3cc(-c4cc[nH]n4)ccc3c2[nH]1)C(C)C [Compound 140]
16 | > 100 | Nc1nc2ccc(Cl)cc2c2[nH]c(CN3CCCC3=O)nc12 [Compound 141]
17 | > 100 | CC(C)(C)OC(=O)NCc1nc2c(N)nc3cc(-c4cc[nH]n4)ccc3c2[nH]1 [Compound 142]
18 | > 100 | Nc1nc2cc(Cl)ccc2c2[nH]c(CN3CCCC3=O)nc12 [Compound 143]
19 | > 100 | Nc1nc2cc(-c3ccc(Cl)nc3)ccc2c2[nH]c(CN3CCCC3=O)nc12 [Compound 153]
20 | 20 to 100 | CCNCc1nc2c(N)nc3cc(OC)ccc3c2[nH]1 [Compound 154]
21 | > 100 | CCN(Cc1nc2c(N)nc3cc(-c4ncc[nH]4)ccc3c2[nH]1)C(=O)OC(C)(C)C [Compound 155]
22 | 20 to 100 | Nc1nc2cc(-n3ncc4ccccc43)ccc2c2[nH]c(CN3CCCC3=O)nc12 [Compound 157]
23 | > 100 | CCN(Cc1nc2c(N)nc3cc(OC)ccc3c2[nH]1)C(C)=O [Compound 158, N-((4-Amino-7-methoxy-1H-imidazo[4,5-c]quinolin-2-yl)methyl)-N-ethylacetamide]
24 | > 100 | CCN(Cc1nc2c(N)nc3cc(Cl)c(Cl)cc3c2[nH]1)C(C)=O [Compound 159]
25 | > 100 | CCNCc1nc2c(N)nc3cc(-c4ncc[nH]4)ccc3c2[nH]1 [Compound 162]
26 | > 100 | CCN(Cc1nc2c(N)nc3cc(-c4cc[nH]n4)ccc3c2[nH]1)CC(C)C [Compound 453, 2-{[ethyl(2-methylpropyl)amino]methyl}-7-(1H-pyrazol-3-yl)-1H-imidazo[4,5-c]quinolin-4-amine]
27 | > 100 | CCN(CC)C(=O)N(CC)Cc1nc2c(N)nc3cc(-c4cc[nH]n4)ccc3c2[nH]1 [Compound 454, 1-{[4-amino-7-(1H-pyrazol-3-yl)-1H-imidazo[4,5-c]quinolin-2-yl]methyl}-1,3,3-triethylurea]
